Results from ChEMBL document CHEMBL3885881, “DrugMatrix”.

Organism: Rattus norvegicus
Assay: DrugMatrix - Regimen: Daily Repeat
Assay type: toxicity, organism-based, Sprague-Dawley
Design: regimen Daily Repeat, gender Male, age 6-8 weeks
Conditions: in vivo, po, 30 mg/kg, route oral GAVAGE, dose level Low, vehicle .5 % CMC; for BASOPHIL / EOSINOPHIL / ERYTHROCYTE COUNT / HEMATOCRIT / HEMOGLOBIN / LEUKOCYTE COUNT / LYMPHOCYTE / MEAN CORPUSCULAR HEMOGLOBIN / MEAN CORPUSCULAR HEMOGLOBIN CONCENTRATION / MEAN CORPUSCULAR VOLUME / MONOCYTE / NEUTROPHIL / PLATELET COUNT: tissue Blood; for ALANINE AMINOTRANSFERASE / ALBUMIN / ALKALINE PHOSPHATASE / ASPARTATE AMINOTRANSFERASE / BLOOD UREA NITROGEN / CHLORIDE / CHOLESTEROL / CREATINE PHOSPHOKINASE / CREATININE / GLUCOSE / PHOSPHORUS / POTASSIUM / SODIUM / TOTAL BILIRUBIN / TOTAL PROTEIN: tissue Plasma

SMILES: CCCc1cc(=O)[nH]c(=S)[nH]1 [PROPYLTHIOURACIL]
- BASOPHIL (72 h, time 3 day): 0%
- EOSINOPHIL (72 h, time 3 day): 0.67%
- ERYTHROCYTE COUNT (72 h, time 3 day): 5.84 x10E6/uL
- HEMATOCRIT (72 h, time 3 day): 36.23%
- HEMOGLOBIN (72 h, time 3 day): 14.13 G/DL
- LEUKOCYTE COUNT (72 h, time 3 day): 20.27 x10E3/uL
- LYMPHOCYTE (72 h, time 3 day): 89.33%
- MEAN CORPUSCULAR HEMOGLOBIN (72 h, time 3 day): 24.23 pg
- MEAN CORPUSCULAR HEMOGLOBIN CONCENTRATION (72 h, time 3 day): 39 G/DL
- MEAN CORPUSCULAR VOLUME (72 h, time 3 day): 62.03 fL
- MONOCYTE (72 h, time 3 day): 2%
- NEUTROPHIL (72 h, time 3 day): 8%
- PLATELET COUNT (72 h, time 3 day): 1163.33 x10E3/uL
- ALANINE AMINOTRANSFERASE (72 h, time 3 day): 44 u/L
- ALBUMIN (72 h, time 3 day): 3.73 G/DL
- ALKALINE PHOSPHATASE (72 h, time 3 day): 305.67 u/L
- ASPARTATE AMINOTRANSFERASE (72 h, time 3 day): 56 u/L
- BLOOD UREA NITROGEN (72 h, time 3 day): 11 mg/dL
- CHLORIDE (72 h, time 3 day): 106.33 MEQ/L
- CHOLESTEROL (72 h, time 3 day): 78 mg/dL
- CREATINE PHOSPHOKINASE (72 h, time 3 day): 125.67 u/L
- CREATININE (72 h, time 3 day): 0.47 mg/dL
- GLUCOSE (72 h, time 3 day): 167.33 mg/dL
- PHOSPHORUS (72 h, time 3 day): 11 mg/dL
- POTASSIUM (72 h, time 3 day): 6.5 MEQ/L
- SODIUM (72 h, time 3 day): 152 MEQ/L
- TOTAL BILIRUBIN (72 h, time 3 day): 0.3 mg/dL
- TOTAL PROTEIN (72 h, time 3 day): 5.9 G/DL
- BASOPHIL (120 h, time 5 day): 0%
- EOSINOPHIL (120 h, time 5 day): 0%
- ERYTHROCYTE COUNT (120 h, time 5 day): 6.26 x10E6/uL
- HEMATOCRIT (120 h, time 5 day): 37.07%
- HEMOGLOBIN (120 h, time 5 day): 14.77 G/DL
- LEUKOCYTE COUNT (120 h, time 5 day): 11.7 x10E3/uL
- LYMPHOCYTE (120 h, time 5 day): 87%
- MEAN CORPUSCULAR HEMOGLOBIN (120 h, time 5 day): 23.6 pg
- MEAN CORPUSCULAR HEMOGLOBIN CONCENTRATION (120 h, time 5 day): 39.83 G/DL
- MEAN CORPUSCULAR VOLUME (120 h, time 5 day): 59.2 fL
- MONOCYTE (120 h, time 5 day): 1.67%
- NEUTROPHIL (120 h, time 5 day): 11.33%
- PLATELET COUNT (120 h, time 5 day): 1185.67 x10E3/uL
- ALANINE AMINOTRANSFERASE (120 h, time 5 day): 32.67 u/L
- ALBUMIN (120 h, time 5 day): 3.53 G/DL
- ALKALINE PHOSPHATASE (120 h, time 5 day): 297.33 u/L
- ASPARTATE AMINOTRANSFERASE (120 h, time 5 day): 51.67 u/L
- BLOOD UREA NITROGEN (120 h, time 5 day): 13.33 mg/dL
- CHLORIDE (120 h, time 5 day): 108.33 MEQ/L
- CHOLESTEROL (120 h, time 5 day): 68 mg/dL
- CREATINE PHOSPHOKINASE (120 h, time 5 day): 112 u/L
- CREATININE (120 h, time 5 day): 0.53 mg/dL
- GLUCOSE (120 h, time 5 day): 180.33 mg/dL
- PHOSPHORUS (120 h, time 5 day): 10.03 mg/dL
- POTASSIUM (120 h, time 5 day): 6.8 MEQ/L
- SODIUM (120 h, time 5 day): 149 MEQ/L
- TOTAL BILIRUBIN (120 h, time 5 day): 0.23 mg/dL
- TOTAL PROTEIN (120 h, time 5 day): 5.7 G/DL
